From patent US20230028441A1, “NOVEL HETEROARYL-TRIAZOLE COMPOUNDS AS PESTICIDES” (Bayer Aktiengesellschaft, priority 2019, published 2023)

Columns and labels:
Assay type in all cases: in vivo
[1] = test system: adult engorged female ticks (Rhipicephalus microplus); assay: Rhipicephalus (Boophilus) microplus injection test; settings: 168 h, egg deposition after 7 days, read-out: efficacy (infertile eggs); for pest or weed control at 0.004 mg: 4 μg/animal; for pest or weed control at 0.02 mg: 20 μg/animal
Procedure: Solvent: dimethyl sulfoxide
To produce a suitable preparation of active compound, 10 mg of active compound are dissolved in 0.5 mL solvent, and the concentrate is diluted with solvent to the desired concentration.
Five adult engorged female ticks (Rhipicephalus microplus) are injected with 1 μL compound solution into the abdomen. The ticks are transferred into replica plates and incubated in a climate chamber.
After 7 days egg deposition of fertile eggs is monitored. Eggs where fertility is not visible are stored in a climate chamber till hatching after about 42 days. An efficacy of 100% means all eggs are infertile; 0% means all eggs are fertile.

[2] = test system: larvae of the banded cucumber beetle (Diabrotica balteata); assay: Diabrotica balteata spray test; settings: 168 h, after 7 days, wheat seeds, read-out: efficacy (seedlings grown up); for pest or weed control at 32 µg/disc, 100 g/ha: 100 g/ha (=32 μg/well)
Procedure: (§1) Solvent: 78.0 parts by weight of acetone • • 1.5 parts by weight of dimethylformamide
(§2) Emulsifier: alkylarylpolyglycol ether
(§3) To produce a suitable preparation of active compound, 1 part by weight of active compound is mixed with the stated amount of solvent, and the concentrate is diluted with water, containing an emulsifier concentration of 1000 ppm, to the desired concentration. Further test concentrations are prepared by dilution with emulsifier containing water.
Soaked wheat seeds (Triticum aestivum) are placed in a multiple well plate filled with agar and some water and are incubated for 1 day to germinate (5 seeds per well). The germinated wheat seeds are sprayed with a test solution containing the desired concentration of the active ingredient. Afterwards each unit is infected with 10-20 larvae of the banded cucumber beetle (Diabrotica balteata).
After 7 days efficacy in % is determined. 100% means all the seedlings have grown up like in the untreated, uninfected control; 0% means none of the seedlings have grown.

[3] = test system: fall armyworm larvae (Spodoptera frugiperda); assay: Spodoptera frugiperda spray test (maize leaf sections); settings: 168 h
Procedure: Solvent: 78.0 parts by weight acetone • 1.5 parts by weight dimethylformamide
as §2
as §3, with “solvents” for “solvent,”, “and” for “and the concentrate”
Maize (Zea mays) leaf sections are sprayed with a preparation of the active ingredient of the desired concentration. Once dry, the leaf sections are infested with fall armyworm larvae (Spodoptera frugiperda).
After 7 days mortality in % is determined. 100% means all caterpillars have been killed and 0% means none of the caterpillars have been killed.

[4] = test system: larvae of the southern green stink bug (Nezara viridula); assay: Nezara viridula spray test; settings: in Hordeum vulgare, 96 h
Procedure: as §1, §2, §3
Barley plants (Hordeum vulgare) infested with larvae of the southern green stink bug (Nezara viridula) are sprayed with a test solution containing the desired concentration of the active ingredient.
After 4 days mortality in % is determined. 100% means all the stink bugs have been killed; 0% means none of the stink bugs have been killed.

CC(NC(=O)c1cc(Cl)cc(C(F)(F)F)c1)c1nc(NC(=O)OC(C)(C)C)nn1-c1ncccn1 (racemic) [I-001, tert-butyl N-[5-[1-[[3-chloro-5-(trifluoromethyl)benzoyl]amino]ethyl]-1-pyrimidin-2-yl-1,2,4-triazol-3-yl]carbamate]
pest or weed control at 0.004 mg [1]: 100% | pest or weed control at 0.02 mg [1]: 100% | pest or weed control at 160 µg/disc, 500 g/ha ([2]; 500 g/ha (=160 μg/well)): 100% | mortality at 500 g/ha [3]: 100%

CC(NC(=O)c1cc(Cl)cc(S(C)(=O)=O)c1)c1nc(NC(=O)OC(C)(C)C)nn1-c1ccc(Cl)cn1 (stereo not drawn) [I-002]
pest or weed control at 0.004 mg [1]: 100% | pest or weed control at 0.02 mg [1]: 100%

CC(NC(=O)c1cc(Cl)cc(C(F)(F)F)c1)c1nc(-c2ccc(Cl)nc2)nn1-c1ncccn1 (stereo not drawn) [I-043]
pest or weed control at 0.004 mg [1]: 80%

CC(NC(=O)c1cc(Cl)cc(S(C)(=O)=O)c1)c1nc(-c2ncccn2)nn1-c1ncccn1 (stereo not drawn) [I-052]
pest or weed control at 0.004 mg [1]: 100% | pest or weed control at 0.02 mg [1]: 100%

CC(NC(=O)c1cc(Cl)cc(S(C)(=O)=O)c1)c1nc(SCC(F)(F)F)nn1-c1ccc(Cl)cn1 (stereo not drawn) [I-065]
pest or weed control at 0.004 mg [1]: 100% | pest or weed control at 0.02 mg [1]: 100%

CC(NC(=O)c1cc(Cl)cc(C(F)(F)F)c1)c1nc(SCC(F)(F)F)nn1-c1ccc(Cl)cn1 (stereo not drawn) [I-067]
pest or weed control at 0.02 mg [1]: 100%

CC(NC(=O)c1cc(Cl)cc(C(F)(F)F)c1)c1nc([S+]([O-])CC(F)(F)F)nn1-c1ccc(Cl)cn1 (stereo not drawn) [I-068]
pest or weed control at 0.004 mg [1]: 80% | pest or weed control at 0.02 mg [1]: 100%

CC(NC(=O)c1cc(Cl)cc(S(C)(=O)=O)c1)c1nc(Cc2ccccc2)nn1-c1ncccn1 (stereo not drawn) [I-084]
mortality at 100 g/ha [4]: 90%

CC(NC(=O)c1cc(C(F)(F)F)cc(C(F)(F)F)c1)c1nc(Cc2c(F)cccc2F)nn1-c1ncccn1 (stereo not drawn) [I-086]
pest or weed control at 32 µg/disc, 100 g/ha [2]: 100%

CC(NC(=O)c1cc(C(F)(F)F)cc(C(F)(F)F)c1)c1nc(NC(=O)OC(C)(C)C)nn1-c1ccc(C#N)cn1 (stereo not drawn) [I-096]
pest or weed control at 0.004 mg [1]: 100%

CC(NC(=O)c1cc(Br)cc(Br)c1)c1nc(NC(=O)OC(C)(C)C)nn1-c1ccc(C#N)cn1 (stereo not drawn) [I-098]
pest or weed control at 0.004 mg [1]: 100%

CC(NC(=O)c1cc(Br)cc(C(F)(F)F)c1)c1nc(NC(=O)OC(C)(C)C)nn1-c1ccc(C#N)cn1 (stereo not drawn) [I-102]
pest or weed control at 0.004 mg [1]: 100%

CON(C)c1nc([C@H](C)NC(=O)c2cc(Br)cc(Br)c2)n(-c2ncccn2)n1 [I-150]
pest or weed control at 32 µg/disc, 100 g/ha [2]: 100% | mortality at 100 g/ha [3]: 100%

CC(NC(=O)c1cc(Cl)cc(S(C)(=O)=O)c1)c1nc(N(C)C)nn1-c1ccc(C#N)cn1 (stereo not drawn) [I-157]
mortality at 500 g/ha [4]: 90%

C[C@H](NC(=O)c1cc(Br)cc(C(F)(F)F)c1)c1nc(N)nn1-c1ccc(C#N)cn1 [I-172]
pest or weed control at 32 µg/disc, 100 g/ha [2]: 100% | mortality at 100 g/ha [3]: 100%

CC(NC(=O)c1cc(OC(F)(F)F)cc(C2CC2)c1)c1nc(N2CCCCC2)nn1-c1ncccn1 (stereo not drawn) [I-196]
mortality at 500 g/ha [4]: 90%

C[C@H](NC(=O)c1cc(OC(F)(F)F)cc(C2CC2)c1)c1nc(N2CCOCC2)nn1-c1ncc(C#N)s1 [I-197]
pest or weed control at 32 µg/disc, 100 g/ha [2]: 100%

CC(NC(=O)c1cc(Cl)cc(S(C)(=O)=O)c1)c1nc(N2CCCCC2)nn1-c1ncccn1 (stereo not drawn) [I-198]
pest or weed control at 32 µg/disc, 100 g/ha [2]: 80%

C[C@H](NC(=O)c1cc(C(F)(F)F)cc(C(F)(F)F)c1)c1nc(N2CCOCC2)nn1-c1ncc(C#N)s1 [I-199]
pest or weed control at 32 µg/disc, 100 g/ha [2]: 100%

CNc1nc([C@H](C)NC(=O)c2cc(OC(F)(F)F)cc(C3CC3)c2)n(-c2ncc(C#N)s2)n1 [I-206]
mortality at 100 g/ha [3]: 100%

CNc1nc([C@H](C)NC(=O)c2cc(C(F)(F)F)cc(C(F)(F)F)c2)n(-c2ncc(C#N)s2)n1 [I-208]
mortality at 100 g/ha [3]: 100%

CNc1nc([C@H](C)NC(=O)c2cc(Br)cc(OC(F)(F)F)c2)n(-c2ncc(C#N)s2)n1 [I-209]
mortality at 100 g/ha [3]: 100%

CNc1nc([C@H](C)NC(=O)c2cc(Br)cc(Br)c2)n(-c2ncc(C#N)s2)n1 [I-210]
mortality at 100 g/ha [3]: 100%

CNc1nc([C@H](C)NC(=O)c2cc(OC(F)(F)F)cc(S(C)(=O)=O)c2)n(-c2ncc(C#N)s2)n1 [I-212]
mortality at 100 g/ha [3]: 100%
